Assay results from PMC3646888 (PLoS ONE, 2013).

Target: T1, CYP1A2r (Rattus norvegicus, UniProt P04799)
T1 sequence (P04799 1-513): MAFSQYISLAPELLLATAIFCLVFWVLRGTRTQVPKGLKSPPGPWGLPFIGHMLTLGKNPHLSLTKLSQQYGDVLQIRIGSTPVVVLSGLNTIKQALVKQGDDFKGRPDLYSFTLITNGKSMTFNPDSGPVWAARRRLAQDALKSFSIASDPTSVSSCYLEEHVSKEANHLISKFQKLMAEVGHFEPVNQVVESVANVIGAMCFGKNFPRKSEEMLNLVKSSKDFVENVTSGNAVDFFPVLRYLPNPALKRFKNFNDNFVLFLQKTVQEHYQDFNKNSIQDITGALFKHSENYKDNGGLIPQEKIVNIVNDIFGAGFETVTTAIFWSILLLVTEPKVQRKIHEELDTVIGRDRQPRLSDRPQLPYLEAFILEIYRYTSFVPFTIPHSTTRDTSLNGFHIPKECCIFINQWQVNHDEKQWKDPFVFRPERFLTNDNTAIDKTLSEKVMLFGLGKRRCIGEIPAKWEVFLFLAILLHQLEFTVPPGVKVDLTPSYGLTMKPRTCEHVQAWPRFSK
Test: Fluorescence-based CYP assay, recombinant CYP1A2r, substrate EFC
Type: in vitro ADME
Details: concentrations up to 80 µM
Experimental: These assays were performed by methods similar to those described by VanAlstine and Hough, Stresser et al., Wulff et al., Henderson et al., and Crespi et al., with minor modifications. All incubations were performed in a final volume of 200 µL of 50 mM potassium phosphate buffer at pH 7.4 containing 1% acetonitrile. CYP inhibitor studies were performed according to the parameters of Table 1. Substrate concentrations were chosen to be near known Km values. As described in the references cited, two different NADPH regenerating systems were used depending on the substrates used (Table 1). […] Samples were pre-incubated at 37°C for the designated times, and the reactions were initiated with the addition of a substrate and enzyme mixtures (Table 1). […] For the assays utilizing the “high” regenerating system, enzyme reactions were terminated at the designated time by the addition of 75 µL of 2N NaOH, followed by a 2 h post-incubation at 37°C. Product formation was then measured at the designated wavelengths (Table 1). For the “low” regenerating system assays, blanks and standards were prepared in 0.1 mL buffer without the regenerating system. For the “high” regenerating system assays, blanks and standards containing 0.1 mL of buffer received 75 µL of 2N NaOH following pre-incubation.

## Clc1ccc(COC(Cn2ccnc2)c2ccc(Cl)cc2Cl)c(Cl)c1 (stereo not shown) [miconazole]
  Inhibition of CYP1A2r (in words): did not inhibit
